The source of these data is patent US20050197350A1, “Novel quinoline, tetrahydroquinazoline, and pyrimidine derivatives and methods of treatment related to the use thereof” (TAISHO PHARMACEUTICAL CO., LTD., priority 2003, published 2005).

The assay concerns MCH receptors. Kind of assay: MCH receptor activity class (method not given). Conditions: class by percent of control at 10^-7 M or IC50.

Regarding `C=C(C)c1cccc(C(C)(C)NC(=O)N[C@H]2CC[C@@H](Nc3nccc(N(C)C)n3)CC2)c1` [compound 2218], the class was 3 (Class 3 The value of percent of control at 10^−7 M was more than 60% or the value of IC50 was more than 200 nM.). The result for `CN(C)c1ccnc(N[C@H]2CC[C@@H](NC(=O)Nc3cccc4ccccc34)CC2)n1` [compound 2220] reads 3 (Class 3 The value of percent of control at 10^−7 M was more than 60% or the value of IC50 was more than 200 nM.); that for `CN(C)c1ccnc(N[C@H]2CC[C@@H](NC(=O)NC3C[C@H]3c3ccccc3)CC2)n1` (stereo partly shown) [compound 2221], 3 (Class 3 The value of percent of control at 10^−7 M was more than 60% or the value of IC50 was more than 200 nM.). For the compound `CN(C)c1ccnc(N[C@H]2CC[C@@H](NC(=O)Nc3ccc(Oc4ccccc4)cc3)CC2)n1` [compound 2222], the class is 3 (Class 3 The value of percent of control at 10^−7 M was more than 60% or the value of IC50 was more than 200 nM.). With `CCCCCNC(=O)N[C@H]1CC[C@@H](Nc2nccc(N(C)C)n2)CC1` [compound 2223] the figure was 3 (Class 3 The value of percent of control at 10^−7 M was more than 60% or the value of IC50 was more than 200 nM.); with `CC(NC(=O)NC1CCC(Nc2nccc(N(C)C)n2)CC1)c1ccccc1` (stereo not shown) [compound 2227], 3 (Class 3 The value of percent of control at 10^−7 M was more than 60% or the value of IC50 was more than 200 nM.). Take `CN(C)c1ccnc(N[C@H]2CC[C@@H](NC(=O)Nc3c(Cl)c(Cl)cc(Cl)c3Cl)CC2)n1` [compound 2228]: the class is 3 (Class 3 The value of percent of control at 10^−7 M was more than 60% or the value of IC50 was more than 200 nM.). With `CN(C)c1ccnc(N[C@H]2CC[C@@H](NC(=O)Nc3ccc(Br)cc3Br)CC2)n1` [compound 2229] the figure was 3 (Class 3 The value of percent of control at 10^−7 M was more than 60% or the value of IC50 was more than 200 nM.); with `CN(C)c1ccnc(N[C@H]2CC[C@@H](NC(=O)NCc3ccc(Cl)cc3Cl)CC2)n1` [compound 2230], 3 (Class 3 The value of percent of control at 10^−7 M was more than 60% or the value of IC50 was more than 200 nM.). `COc1ccc(NC(=O)N[C@H]2CC[C@@H](Nc3nccc(N(C)C)n3)CC2)c(OC)c1` [compound 2231]: the class is 3 (Class 3 The value of percent of control at 10^−7 M was more than 60% or the value of IC50 was more than 200 nM.). With `CCOc1ccccc1NC(=O)N[C@H]1CC[C@@H](Nc2nccc(N(C)C)n2)CC1` [compound 2232], the class is recorded as 3 (Class 3 The value of percent of control at 10^−7 M was more than 60% or the value of IC50 was more than 200 nM.). The result for `CN(C)c1ccnc(N[C@H]2CC[C@@H](NC(=O)NCc3ccccc3F)CC2)n1` [compound 2233] reads 3 (Class 3 The value of percent of control at 10^−7 M was more than 60% or the value of IC50 was more than 200 nM.); that for `Cc1cc([N+](=O)[O-])ccc1NC(=O)N[C@H]1CC[C@@H](Nc2nccc(N(C)C)n2)CC1` [compound 2234], 3 (Class 3 The value of percent of control at 10^−7 M was more than 60% or the value of IC50 was more than 200 nM.); that for `Cc1ccc([N+](=O)[O-])cc1NC(=O)N[C@H]1CC[C@@H](Nc2nccc(N(C)C)n2)CC1` [compound 2235], 3 (Class 3 The value of percent of control at 10^−7 M was more than 60% or the value of IC50 was more than 200 nM.). The result for `Cc1ccccc1CNC(=O)N[C@H]1CC[C@@H](Nc2nccc(N(C)C)n2)CC1` [compound 2236] reads 3 (Class 3 The value of percent of control at 10^−7 M was more than 60% or the value of IC50 was more than 200 nM.).

As to `CN(C)c1ccnc(N[C@H]2CC[C@@H](NC(=O)Nc3ccccc3[N+](=O)[O-])CC2)n1` [compound 2237], the class is 3 (Class 3 The value of percent of control at 10^−7 M was more than 60% or the value of IC50 was more than 200 nM.). With `CN(C)c1ccnc(N[C@H]2CC[C@@H](NC(=O)Nc3ccc4c(c3)OCO4)CC2)n1` [compound 2238] the figure was 3 (Class 3 The value of percent of control at 10^−7 M was more than 60% or the value of IC50 was more than 200 nM.); with `COc1cc(NC(=O)N[C@H]2CC[C@@H](Nc3nccc(N(C)C)n3)CC2)cc(OC)c1OC` [compound 2239, N-(cis-4-{[4-(dimethylamino)pyrimidin-2-yl]amino}cyclohexyl)-N′-(3,4,5-trimethoxyphenyl)urea], 1 (Class 1: The value of percent of control at 10^−7 M was less than 40% or the value of IC50 was less than 50 nM.).

As to `COc1ccc(NC(=O)N[C@H]2CC[C@@H](Nc3nccc(N(C)C)n3)CC2)cc1OC` [compound 2240], the class is recorded as 3 (Class 3 The value of percent of control at 10^−7 M was more than 60% or the value of IC50 was more than 200 nM.).

As for `COc1ccc(NC(=O)N[C@H]2CC[C@@H](Nc3nccc(N(C)C)n3)CC2)cc1Cl` [compound 2241], the class is listed as 3 (Class 3 The value of percent of control at 10^−7 M was more than 60% or the value of IC50 was more than 200 nM.).

For `CN(C)c1ccnc(N[C@H]2CC[C@@H](NC(=O)Nc3ccc(Br)cc3C(F)(F)F)CC2)n1` [compound 2242], the class is 3 (Class 3 The value of percent of control at 10^−7 M was more than 60% or the value of IC50 was more than 200 nM.). On to `CN(C)c1ccnc(N[C@H]2CC[C@@H](NC(=O)NCc3ccc(Br)cc3)CC2)n1` [compound 2243], for which the class is on record as 3 (Class 3 The value of percent of control at 10^−7 M was more than 60% or the value of IC50 was more than 200 nM.). With `Cc1cc(Cl)ccc1NC(=O)N[C@H]1CC[C@@H](Nc2nccc(N(C)C)n2)CC1` [compound 2244, N-(4-chloro-2-methylphenyl)-N′-(cis-4-{[4-(dimethylamino)pyrimidin-2-yl]amino}cyclohexyl)urea] the figure was 2 (Class 2: The value of percent of control at 10^−7 M was from 40% to 60% or the value of IC′50 was from 50 nM to 200 nM.). For the compound `CN(C)c1ccnc(N[C@H]2CC[C@@H](NC(=O)NCc3ccc(F)cc3)CC2)n1` [compound 2245], the class is 3 (Class 3 The value of percent of control at 10^−7 M was more than 60% or the value of IC50 was more than 200 nM.). On to `COc1ccc(NC(=O)N[C@H]2CC[C@@H](Nc3nccc(N(C)C)n3)CC2)c(C)c1` [compound 2246], for which the class is given as 3 (Class 3 The value of percent of control at 10^−7 M was more than 60% or the value of IC50 was more than 200 nM.). With `COc1cc(OC)c(NC(=O)N[C@H]2CC[C@@H](Nc3nccc(N(C)C)n3)CC2)cc1Cl` [compound 2247] the figure was 1 (Class 1: The value of percent of control at 10^−7 M was less than 40% or the value of IC50 was less than 50 nM.); with `Cc1cc(Br)ccc1NC(=O)N[C@H]1CC[C@@H](Nc2nccc(N(C)C)n2)CC1` [compound 2249, N-(4-bromo-2-methylphenyl)-N′-(cis-4-{[4-(dimethylamino)pyrimidin-2-yl]amino}cyclohexyl)urea], 2 (Class 2: The value of percent of control at 10^−7 M was from 40% to 60% or the value of IC′50 was from 50 nM to 200 nM.). On to `CN(C)c1ccnc(N[C@H]2CC[C@@H](NC(=O)Nc3ccc4c(c3)OCCO4)CC2)n1` [compound 2251], for which the class is reported as 3 (Class 3 The value of percent of control at 10^−7 M was more than 60% or the value of IC50 was more than 200 nM.). With `CC(C)c1cc(Br)c(NC(=O)N[C@H]2CC[C@@H](Nc3nccc(N(C)C)n3)CC2)c(Br)c1` [compound 2252] the figure was 2 (Class 2: The value of percent of control at 10^−7 M was from 40% to 60% or the value of IC′50 was from 50 nM to 200 nM.).

Consider `COc1ccc(NC(=O)N[C@H]2CC[C@@H](Nc3nccc(N(C)C)n3)CC2)cc1OC1CCCC1` [compound 2253], for which the class is on record as 2 (Class 2: The value of percent of control at 10^−7 M was from 40% to 60% or the value of IC′50 was from 50 nM to 200 nM.). The result for `CN(C)c1ccnc(N[C@H]2CC[C@@H](NC(=O)Nc3ccc4c(c3)OCCCO4)CC2)n1` [compound 2254] reads 3 (Class 3 The value of percent of control at 10^−7 M was more than 60% or the value of IC50 was more than 200 nM.); that for `CCCCc1ccc(NC(=O)N[C@H]2CC[C@@H](Nc3nccc(N(C)C)n3)CC2)c(C)c1` [compound 2255], 3 (Class 3 The value of percent of control at 10^−7 M was more than 60% or the value of IC50 was more than 200 nM.); that for `Cc1onc(-c2ccccc2)c1NC(=O)N[C@H]1CC[C@@H](Nc2nccc(N(C)C)n2)CC1` [compound 2256], 3 (Class 3 The value of percent of control at 10^−7 M was more than 60% or the value of IC50 was more than 200 nM.). With `CN(C)c1ccnc(N[C@H]2CC[C@@H](NC(=S)Nc3ccc(Br)cc3)CC2)n1` [compound 2257] the figure was 3 (Class 3 The value of percent of control at 10^−7 M was more than 60% or the value of IC50 was more than 200 nM.); with `CN(C)c1ccnc(N[C@H]2CC[C@@H](NC(=S)Nc3ccc(C#N)cc3)CC2)n1` [compound 2258], 2 (Class 2: The value of percent of control at 10^−7 M was from 40% to 60% or the value of IC′50 was from 50 nM to 200 nM.). Consider `CN(C)c1ccnc(N[C@H]2CC[C@@H](NC(=S)Nc3ccc(Cl)cc3Cl)CC2)n1` [compound 2259], for which the class is reported as 3 (Class 3 The value of percent of control at 10^−7 M was more than 60% or the value of IC50 was more than 200 nM.).

As to `COc1ccc(NC(=S)N[C@H]2CC[C@@H](Nc3nccc(N(C)C)n3)CC2)c(OC)c1` [compound 2260], the class was 2 (Class 2: The value of percent of control at 10^−7 M was from 40% to 60% or the value of IC′50 was from 50 nM to 200 nM.).

For the compound `Cc1cccc(C)c1NC(=S)N[C@H]1CC[C@@H](Nc2nccc(N(C)C)n2)CC1` [compound 2261], the class was 3 (Class 3 The value of percent of control at 10^−7 M was more than 60% or the value of IC50 was more than 200 nM.). As for `CCc1cccc(C(C)C)c1NC(=S)N[C@H]1CC[C@@H](Nc2nccc(N(C)C)n2)CC1` [compound 2262], the class was 3 (Class 3 The value of percent of control at 10^−7 M was more than 60% or the value of IC50 was more than 200 nM.). On to `COc1ccccc1NC(=S)N[C@H]1CC[C@@H](Nc2nccc(N(C)C)n2)CC1` [compound 2263], for which the class is recorded as 3 (Class 3 The value of percent of control at 10^−7 M was more than 60% or the value of IC50 was more than 200 nM.).
